Laboratory results: patent US7238716B2, “Alkanoic acid derivatives process for their production and use thereof” (Takeda Pharmaceuticals Company Limited, priority 2000, dated 2007)

system: not given; assay: not given; conditions: not given

Row | SMILES | melting point [°C]
1 | Cc1oc(-c2ccccc2)nc1COc1cc(COc2cccc(CC(=O)O)c2)on1 [Example 81, 2-[3-[3-(5-methyl-2-phenyl-4-oxazolylmethoxy)-5-isoxazolylmethloxy]phenyl]acetic acid] | 128 to 129
2 | Cc1oc(-c2ccccc2)nc1CCc1nc(COc2ccccc2CC(=O)O)cs1 [Example 103, 2-[2-[[2-[2-(5-methyl-2-phenyl-4-oxazolyl)ethyl]-4-thiazolyl]methoxy]phenyl]acetic acid] | 152 to 153
3 | Cc1oc(-c2ccccc2)nc1COc1cccc(COc2ccc(CC(=O)O)cc2)c1 [Example 68, 2-[4-[3-[(5-methyl-2-phenyl-4-oxazolyl)methoxy]benzyloxy]phenyl]acetic acid] | 179 to 180
4 | Cc1oc(-c2ccccc2)nc1COc1cncc(COc2ccc(CC(=O)O)cc2)c1 [Example 75, 2-[4-[5-[(5-methyl-2-phenyl-4-oxazolyl)methoxy]-3-pyridylmethoxy]phenyl]acetic acid] | 141 to 142
5 | COC(=O)Cc1cc(C)ccc1OCc1ccc(OCc2nc(-c3ccccc3)oc2C)cc1 [Example 14, methyl 2-[5-methyl-2-[4-[(5-methyl-2-phenyl-4-oxazolyl)methoxy]benzyloxy]phenyl]acetate] | 80 to 81
6 | Cc1oc(-c2ccccc2)nc1COc1ccc(COc2ccc(CCC(=O)O)cc2)cc1 [Example 45, 3-[4-[4-[(5-methyl-2-phenyl-4-oxazolyl)methoxy]benzyloxy]phenyl]propionic acid] | 177 to 178
7 | CCOc1ccc(OCc2ccc(OCc3nc(-c4ccccc4)oc3C)cc2)cc1CC(=O)OC [Example 4, methyl-2-[2-ethoxy-5-[4-[(5-methyl-2-phenyl-4-oxazolyl)methoxy]benzyloxy]phenyl]acetate] | 82 to 83
8 | Cc1oc(-c2ccccc2)nc1COc1ccc(COc2ccc(OCc3ccccc3)cc2CC(=O)O)cc1 [Example 27, 2-[5-benzyloxy-2-[4-[(5-methyl-2-phenyl-4-oxazolyl)methoxy]benzyloxy]phenyl]acetic acid] | 140 to 141
9 | Cc1oc(-c2ccccc2)nc1COc1cccc(COc2cncc(CC(=O)O)c2)c1 [Example 76, 2-[5-[3-[(5-methyl-2-phenyl-4-oxazolyl)methoxy]benzyloxy]-3-pyridyl]acetic acid] | 158 to 159
10 | Cc1oc(-c2ccccc2)nc1COc1cccc(CSc2ccc(CC(=O)O)cc2Cl)c1 [Example 142, 2-[3-chloro-4-[3-[(5-methyl-2-phenyl-4-oxazolyl)methoxy]benzylthio]phenyl]acetic acid] | 150 to 151
11 | Cc1oc(-c2ccccc2)nc1COc1ccc(COc2cncc(CC(=O)O)c2)cc1 [Example 38, 2-[5-[4-[(5-methyl-2-phenyl-4-oxazolyl)methoxy]benzyloxy]-3-pyridyl]acetic acid] | 139 to 140
12 | Cc1oc(-c2ccccc2)nc1COc1ccc(COc2ccc(-c3ccccc3)cc2CC(=O)O)cc1 [Example 22, 2-[2-[4-[(5-methyl-2-phenyl-4-oxazolyl)methoxy]benzyloxy]-5-phenylphenyl]acetic acid] | 102 to 103
13 | COC(=O)Cc1ccc(OCc2ccc(OCc3nc(-c4ccccc4)oc3C)cc2)cc1 [Example 8, methyl 2-[4-[4-[(5-methyl-2-phenyl-4-oxazolyl)methoxy]benzyloxy]phenyl]acetate] | 93 to 94
14 | Cc1oc(-c2ccccc2)nc1COc1cncc(COc2ccccc2CC(=O)O)c1 [Example 43, 2-[2-[[5-[(5-methyl-2-phenyl-4-oxazolyl)methoxy]-3-pyridyl]methoxy]phenyl]acetic acid] | 207 to 208
15 | CCOc1ccc(OCc2cccc(OCc3nc(-c4ccccc4)oc3C)c2)cc1CCC(=O)O [Example 33, 3-[2-ethoxy-5-[3-[(5-methyl-2-phenyl-4-oxazolyl)methoxy]benzyloxy]phenyl]propionic acid] | 136 to 137
16 | Cc1oc(-c2ccccc2)nc1COc1ccc(COc2ccccc2CCC(=O)O)cc1 [Example 13, 3-[2-[4-[(5-methyl-2-phenyl-4-oxazolyl)methoxy]benzyloxy]phenyl]propionic acid] | 98 to 99
17 | Cc1oc(-c2ccccc2)nc1COc1ccc(COc2ncccc2C=CC(=O)O)cc1 [Example 134, 3-[2-[4-[(5-methyl-2-phenyl-4-oxazolyl)methoxy]benzyloxy]-3-pyridyl]propenoic acid] | 174 to 175
18 | COC(=O)Cc1cc(Br)ccc1OCc1ccc(OCc2nc(-c3ccccc3)oc2C)cc1 [Example 19, methyl 2-[5-bromo-2-[4-[(5-methyl-2-phenyl-4-oxazolyl)methoxy]benzyloxy]phenyl]acetate] | 100 to 101
19 | COC(=O)Cc1ccccc1OCc1ccc(OCc2nc(-c3ccccc3)sc2C)nc1 [Example 121, methyl 2-[2-[[6-[(5-methyl-2-phenyl-4-thiazolyl)methoxy]-3-pyridyl]methoxy]phenyl]acetate] | 119 to 120
20 | Cc1oc(-c2ccccc2)nc1CCOc1ccc(COc2ncccc2CC(=O)O)cc1 [Example 111, 2-[2-[4-[2-(5-methyl-2-phenyl-4-oxazolyl)ethoxy]benzyloxy]-3-pyridyl]acetic acid] | 134 to 135
21 | Cc1oc(-c2ccccc2)nc1CCc1nc(COc2cccc(CC(=O)O)c2)cs1 [Example 105, 2-[3-[[2-[2-(5-methyl-2-phenyl-4-oxazolyl)ethyl]-4-thiazolyl]methoxy]phenyl]acetic acid] | 153 to 154
22 | COC(=O)Cc1ccccc1OCc1cc(OCc2nc(-c3ccccc3)sc2C)no1 [Example 113, methyl 2-[2-[[3-[(5-methyl-2-phenyl-4-thiazolyl)methoxy]-5-isoxazolyl]methoxy]phenyl]acetate] | 108 to 109
23 | COC(=O)Cc1ccccc1OCc1cc(OCCc2nc(-c3ccccc3)sc2C)no1 [Example 116, methyl 2-[2-[[3-[2-(5-methyl-2-phenyl-4-thiazolyl)ethoxy]-5-isoxazolyl]methoxy]phenyl]acetate] | 80 to 81

molecular target: T1, PPARγ-RXRα heterodimer (Homo sapiens, UniProt P37231); assay: PPARγ-RXRα heterodimer ligand activity, luciferase reporter in PPARγ:RXRα:4ERPP/CHO-K1 cells (Test Example 3); assay type: cell-based; conditions: concentration for 50% of the maximum fold induction of luciferase activity; 48 hours, CHO-K1 cells
T1 construct: expressed in transfected cells; host or cells: CHO-K1
T1 sequence (P37231 1-477 isoform P37231-2): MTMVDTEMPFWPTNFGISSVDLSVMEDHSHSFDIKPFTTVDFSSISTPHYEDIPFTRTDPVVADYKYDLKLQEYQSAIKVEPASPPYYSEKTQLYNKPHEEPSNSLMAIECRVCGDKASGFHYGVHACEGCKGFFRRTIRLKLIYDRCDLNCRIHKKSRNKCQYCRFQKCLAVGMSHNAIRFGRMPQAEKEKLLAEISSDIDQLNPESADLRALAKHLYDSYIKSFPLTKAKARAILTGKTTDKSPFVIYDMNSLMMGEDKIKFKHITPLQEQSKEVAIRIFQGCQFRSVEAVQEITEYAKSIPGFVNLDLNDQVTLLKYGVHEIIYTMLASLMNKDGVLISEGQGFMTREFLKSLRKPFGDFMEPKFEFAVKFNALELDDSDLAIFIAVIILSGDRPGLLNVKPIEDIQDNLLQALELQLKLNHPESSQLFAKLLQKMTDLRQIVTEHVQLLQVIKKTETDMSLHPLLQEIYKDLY
T1 sequence (P19793 1-462 partner): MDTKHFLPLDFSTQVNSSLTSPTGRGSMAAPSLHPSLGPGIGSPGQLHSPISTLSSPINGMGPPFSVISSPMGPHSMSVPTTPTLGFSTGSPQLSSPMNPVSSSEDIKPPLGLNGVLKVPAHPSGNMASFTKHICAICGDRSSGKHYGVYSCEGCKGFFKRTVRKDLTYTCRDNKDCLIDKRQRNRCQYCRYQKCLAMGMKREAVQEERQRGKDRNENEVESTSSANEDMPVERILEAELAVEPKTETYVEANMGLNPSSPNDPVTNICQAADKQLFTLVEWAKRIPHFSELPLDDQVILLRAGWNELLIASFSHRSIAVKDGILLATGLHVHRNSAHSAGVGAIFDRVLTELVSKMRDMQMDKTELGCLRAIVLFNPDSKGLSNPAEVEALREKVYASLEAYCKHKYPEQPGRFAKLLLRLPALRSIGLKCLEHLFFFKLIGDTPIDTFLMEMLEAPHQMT
Experimental: A PPARγ:RXRα:4ERPP/CHO-K1 cells obtained in Reference Example 5 described later were cultured in HAM F12 medium (produced by NISSUI SEIYAKU) containing 10% Fetal bovine serum (produced by Life Technologies, Inc., USA) and then inoculated to a 96-well white plate (produced by Corning Costar Corporation, USA) at the density of 2×10^4 cells/well, and cultured in a CO2 gas incubator at 37° C. overnight.
After washing the 96 well white plate with PBS (Phosphate-buffered saline), 90 μl of HAM F12 medium containing 0.1% fatty acid-free bovine serum albumin (BSA) and 10 μl of test compound were added, which was cultured in a CO2 gas incubator at 37° C. for 48 hours. After removing the medium, 40 μl of PIKKAGENE 7.5 (produced by Wako Pure Chemical Industries, Ltd.) was added. After stirring, the luciferase activity was determined using Lumistar (produced by BMG Labtechnologies GmbH, Germany).
A fold induction was calculated based on the luciferase activity of each test compound by taking the luciferase activity in the test compound non administration group as 1. The values of the test compound, concentration and the fold induction were analyzed using PRISM 2.01 (produced by GraphPad Software Inc. USA) to calculate the EC50 values, the effective concentration of a test compound for 50% of the maximum fold induction.
After a CHO-K1 cell cultured in a 750 ml tissue culture flask (produced by Corning-Costar Corporation, USA) containing HAM F12 medium (produced by NISSUI SEIYAKU) supplemented with 10% Fetal Bovine Serum (produced by Life Technologies, Inc., USA) was scraped by treating with 0.5 g/L trypsin-0.2 g/L EDTA (ethylenediaminetetraacetic acid) (produced by Life Technologies, Inc., USA), the cell was washed with PBS (phosphate buffered saline) (produced by Life Technologies, Inc., USA), centrifuged (1000 rpm, 5 minutes), and then suspended in PBS. Subsequently, a DNA was introduced into the cell under the condition shown below using GENE PULSER (produced by Bio-Rad Laboratories, USA).
Namely, to a cuvette having a 0.4 cm gap, added were 8×10^6 cells and 10 μg of plasmid pVgRXR2-hPPARγ obtained in Reference Example 3 and 10 μg of reporter plasmid pGL3-4ERPP-TK neo obtained in Reference Example 4, which was subjected to electroporation at the voltage of 0.25 kV under the capacitance of 960 μF. Subsequently, the cell was transferred into a HAM F12 medium containing 10% Fetal Bovine. Serum and cultured for 24 hours. Then the cell was scraped again and centrifuged, and then suspended in HAM F12 medium containing 10% Fetal Bovine Serum supplemented with 500 μg/ml of GENETICIN (produced by Life Technologies, Inc., USA) and 250 μg/ml of ZEOCIN (produced by Invitrogen, USA). The suspension was diluted to the density of 10^4 cells/ml, and inoculated to a 96-well plate (produced by Corning Costar Corporation, USA), which was cultured in a CO2 gas incubator at 37° C., whereby obtaining a GENETICIN- and ZEOCIN-resistant transformant.
Subsequently, after the transformant cell line thus obtained was cultured in a 24-well plate (produced by Corning Costar Corporation, USA), selected was a cell line, PPARγ:RXRα:4ERPP/CHO-K1 cell, in which the luciferase was expressed and induced by addition of 10 μM pioglitazone hydrochloride.

Row | SMILES | EC50 [µM]
24 | Cc1oc(-c2ccccc2)nc1COc1cc(COc2cccc(CC(=O)O)c2)on1 [Example 81, 2-[3-[3-(5-methyl-2-phenyl-4-oxazolylmethoxy)-5-isoxazolylmethloxy]phenyl]acetic acid] | 0.062
25 | Cc1oc(-c2ccccc2)nc1CCc1nc(COc2ccccc2CC(=O)O)cs1 [Example 103, 2-[2-[[2-[2-(5-methyl-2-phenyl-4-oxazolyl)ethyl]-4-thiazolyl]methoxy]phenyl]acetic acid] | 0.24
26 | Cc1oc(-c2ccccc2)nc1CN(C(=O)OC(C)(C)C)c1ccc(COc2ccccc2CC(=O)O)cc1 [Example 60, 2-[2-[4-[(t-butoxycarbonyl)[(5-methyl-2-phenyl-4-oxazolyl)methyl]amino]benzyloxy]phenyl]acetic acid] | 0.0061
